In the oligonucleotide strings, read from the 5' end, every base follows the letter of its sugar. An asterisk marks phosphorothioate; unmarked linkages are phosphodiester. Other units and linkages are bracketed, terminal groups are in braces. A string of capitals states the bases alone. e = 2'-O-(2-methoxyethyl) (MOE); [5mC] = 5-methylcytosine; d = 2'-deoxy (DNA)
Experiments:
Format in all cases: in vivo
[1] = Tolerability in CD1 mice: liver function (Example 17); set-up: Albumin: unit not given here; conditions: plasma, 50 mg/kg s.c. twice a week, 50 mg/kg
[2] = Tolerability in CD1 mice: kidney function (Example 17); conditions: plasma, 50 mg/kg s.c. twice a week
Description: Results are presented in Tables 62 and 63, expressed in mg/dL.

[3] = Tolerability in CD1 mice: hematology assays (Example 17); conditions: for lymphocyte count / monocyte count / neutrophil count: percent of total blood cell count; for HCT / MCH / MCHC / MCV / WBC count: blood, 50 mg/kg s.c. twice a week
Description: A control group of five mice was injected subcutaneously with PBS for 2 weeks. All experimental groups (i.e. ASO treated mice at 2, 4, 6 weeks) were compared to the control group (i.e. PBS, 2 weeks).
Blood obtained from all mice groups were sent to Antech Diagnostics for hematocrit (HCT), mean corpuscular volume (MCV), mean corpuscular hemoglobin (MCH), and mean corpuscular hemoglobin concentration (MCHC) measurements and analyses, as well as measurements of the various blood cells, such as WBC (neutrophils, lymphocytes, and monocytes), RBC, and platelets, and total hemoglobin content. Percentages given in the tables indicate the percent of total blood cell count.

[4] = Tolerability in Sprague-Dawley rats: liver function (Example 19); conditions: plasma, 50 mg/kg s.c. twice per week for 6 weeks, 50 mg/kg
Description: (§1) Urine samples were taken before the start of treatment.

[5] = Tolerability in Sprague-Dawley rats: kidney function (Example 19); conditions: Sprague-Dawley rats, plasma, 50 mg/kg s.c. twice per week for 6 weeks; 50 mg/kg
Description: as §1

[6] = Tolerability in Sprague-Dawley rats: hematology assays (Example 19); conditions: 50 mg/kg s.c. twice per week for 6 weeks; for Lymphocytes / Monocytes / Neutrophils / RBC / Hemoglobin / MCHC: 50 mg/kg; for MCH / Hemoglobin / MCHC: title says % control
Description: as §1

[7] = as above; conditions: 50 mg/kg s.c. twice per week for 6 weeks, 50 mg/kg; for HCT / MCV: title says % control

Sequence “GCCCTTCATGTCTAGGTCCA [ISIS 416825] (eG*e[5mC]*e[5mC]*e[5mC]*eT*dT*d[5mC]*dA*dT*dG*dT*d[5mC]*dT*dA*dG*eG*eT*e[5mC]*e[5mC]*eA) [5-10-5 MOE gapmer]” has an ALT ([1]; 2 weeks) of 64 IU/L, an AST ([1]; 2 weeks) of 82 IU/L and an Albumin ([1]; 2 weeks) of 3.6. The Bilirubin ([1]; 2 weeks) was 0.41 mg/dL, the ALT ([1]; 4 weeks) was 314 IU/L and the AST ([1]; 4 weeks) was 239 IU/L. The Albumin ([1]; 4 weeks) was 3.4, the Bilirubin ([1]; 4 weeks) was 0.69 mg/dL and the ALT ([1]; 6 weeks) was 507 IU/L. The AST ([1]; 6 weeks) was 301 IU/L, the Albumin ([1]; 6 weeks) was 3.5 and the Bilirubin ([1]; 6 weeks) was 0.29 mg/dL. For the same sequence, the BUN ([2]; 2 weeks, 50 mg/kg) was 29 mg/dL, the creatinine ([2]; 2 weeks, 50 mg/kg) was 0.14 mg/dL and the BUN ([2]; 4 weeks, 50 mg/kg) was 35 mg/dL. It also gave a creatinine ([2]; 4 weeks, 50 mg/kg) of 0.21 mg/dL, a creatinine ([2]; 6 weeks) of 0.17 mg/dL and a BUN ([2]; 6 weeks, 50 mg/kg) of 31 mg/dL. The RBC count ([3]; 2 weeks) was 9 cells/pL, the hemoglobin content ([3]; 2 weeks) was 14.5 g/dL and the platelet count ([3]; 2 weeks) was 1689 cells/nL. The lymphocyte count ([3]; 2 weeks) was 82%, the monocyte count ([3]; 2 weeks) was 2% and the neutrophil count ([3]; 2 weeks) was 15%. It also gave an RBC count ([3]; 4 weeks) of 9 cells/pL, a hemoglobin content ([3]; 4 weeks) of 14.1 g/dL and a platelet count ([3]; 4 weeks) of 1229 cells/nL. It also gave a lymphocyte count ([3]; 4 weeks) of 53%, a monocyte count ([3]; 4 weeks) of 5% and a neutrophil count ([3]; 4 weeks) of 43%. For the same sequence, the RBC count ([3]; 6 weeks) was 8 cells/pL, the hemoglobin content ([3]; 6 weeks) was 12.1 g/dL and the platelet count ([3]; 6 weeks) was 942 cells/nL. For the same sequence, the lymphocyte count ([3]; 6 weeks) was 71%, the monocyte count ([3]; 6 weeks) was 4% and the neutrophil count ([3]; 6 weeks) was 23%. It also gave an HCT ([3]; 2 weeks, 50 mg/kg) of 49%, an MCH ([3]; 2 weeks, 50 mg/kg) of 17 pg and an MCHC ([3]; 2 weeks, 50 mg/kg) of 29%. It also gave an MCV ([3]; 2 weeks, 50 mg/kg) of 58 fL, a WBC count ([3]; 2 weeks, 50 mg/kg) of 8 cells/nL and an MCH ([3]; 4 weeks) of 16 pg. It also gave a WBC count ([3]; 4 weeks) of 8 cells/nL, an HCT ([3]; 4 weeks, 50 mg/kg) of 46% and an MCHC ([3]; 4 weeks, 50 mg/kg) of 31%. It also gave an MCV ([3]; 4 weeks, 50 mg/kg) of 53 fL, an HCT ([3]; 6 weeks, 50 mg/kg) of 40% and an MCH ([3]; 6 weeks, 50 mg/kg) of 15 pg. It also gave an MCHC ([3]; 6 weeks, 50 mg/kg) of 31%, an MCV ([3]; 6 weeks, 50 mg/kg) of 51 fL and a WBC count ([3]; 6 weeks, 50 mg/kg) of 6 cells/nL. The ALT [4] was 89 IU/L, the AST [4] was 17 IU/L and the Albumin [4] was 2 mg/dL. The Bilirubin [4] was 4 mg/dL, the BUN [5] was 7 mg/dL and the creatinine [5] was 17 mg/dL. For the same sequence, the Lymphocytes [6] was 3%, the Monocytes [6] was 15% and the Neutrophils [6] was 25%. The RBC [6] was 2 pL⁻¹, the MCH [6] was 2 pg and the Hemoglobin [6] was 2 g/dL. The MCHC [6] was 4%, the Platelets [7] was 6 10^3/μL and the WBC [7] was 22 nL⁻¹. For the same sequence, the HCT [7] was 2% and the MCV [7] was 4 fL.
In the case of “GCCCTTCATGTCTAGGTCCA [ISIS 416892] (eG*e[5mC]*e[5mC]*d[5mC]*dT*dT*d[5mC]*dA*dT*dG*dT*d[5mC]*dT*dA*dG*dG*dT*e[5mC]*e[5mC]*eA) [3-14-3 MOE gapmer]”, the ALT ([1]; 2 weeks) is reported as 66 IU/L, the AST ([1]; 2 weeks) is reported as 121 IU/L and the Albumin ([1]; 2 weeks) is reported as 3.2. The Bilirubin ([1]; 2 weeks) was 0.38 mg/dL, the ALT ([1]; 4 weeks) was 1526 IU/L and the AST ([1]; 4 weeks) was 1347 IU/L. It also gave an Albumin ([1]; 4 weeks) of 4.0, a Bilirubin ([1]; 4 weeks) of 2.99 mg/dL and an ALT ([1]; 6 weeks) of 1939 IU/L. It also gave an AST ([1]; 6 weeks) of 1443 IU/L, an Albumin ([1]; 6 weeks) of 4.4 and a Bilirubin ([1]; 6 weeks) of 0.50 mg/dL. For the same sequence, the BUN ([2]; 2 weeks, 50 mg/kg) was 19 mg/dL, the creatinine ([2]; 2 weeks, 50 mg/kg) was 0.11 mg/dL and the BUN ([2]; 4 weeks, 50 mg/kg) was 28 mg/dL. It also gave a creatinine ([2]; 4 weeks, 50 mg/kg) of 0.20 mg/dL, a creatinine ([2]; 6 weeks) of 0.17 mg/dL and a BUN ([2]; 6 weeks, 50 mg/kg) of 23 mg/dL. The RBC count ([3]; 2 weeks) was 7 cells/pL, the hemoglobin content ([3]; 2 weeks) was 13.0 g/dL and the platelet count ([3]; 2 weeks) was 1687 cells/nL. The lymphocyte count ([3]; 2 weeks) was 79%, the monocyte count ([3]; 2 weeks) was 3% and the neutrophil count ([3]; 2 weeks) was 19%. For the same sequence, the RBC count ([3]; 4 weeks) was 9 cells/pL, the hemoglobin content ([3]; 4 weeks) was 13.5 g/dL and the platelet count ([3]; 4 weeks) was 636 cells/nL. It also gave a lymphocyte count ([3]; 4 weeks) of 52%, a monocyte count ([3]; 4 weeks) of 6% and a neutrophil count ([3]; 4 weeks) of 43%. For the same sequence, the RBC count ([3]; 6 weeks) was 9 cells/pL, the hemoglobin content ([3]; 6 weeks) was 13.1 g/dL and the platelet count ([3]; 6 weeks) was 1004 cells/nL. The lymphocyte count ([3]; 6 weeks) was 64%, the monocyte count ([3]; 6 weeks) was 7% and the neutrophil count ([3]; 6 weeks) was 28%. It also gave an HCT ([3]; 2 weeks, 50 mg/kg) of 48%, an MCH ([3]; 2 weeks, 50 mg/kg) of 18 pg and an MCHC ([3]; 2 weeks, 50 mg/kg) of 30%. It also gave an MCV ([3]; 2 weeks, 50 mg/kg) of 59 fL, a WBC count ([3]; 2 weeks, 50 mg/kg) of 5 cells/nL and an MCH ([3]; 4 weeks) of 16 pg. For the same sequence, the WBC count ([3]; 4 weeks) was 8 cells/nL, the HCT ([3]; 4 weeks, 50 mg/kg) was 42% and the MCHC ([3]; 4 weeks, 50 mg/kg) was 32%. For the same sequence, the MCV ([3]; 4 weeks, 50 mg/kg) was 49 fL, the HCT ([3]; 6 weeks, 50 mg/kg) was 45% and the MCH ([3]; 6 weeks, 50 mg/kg) was 16 pg. For the same sequence, the MCHC ([3]; 6 weeks, 50 mg/kg) was 30%, the MCV ([3]; 6 weeks, 50 mg/kg) was 53 fL and the WBC count ([3]; 6 weeks, 50 mg/kg) was 9 cells/nL. For the same sequence, the ALT [4] was 113 IU/L, the AST [4] was 183 IU/L and the Albumin [4] was 8 mg/dL. The Bilirubin [4] was 1 mg/dL, the BUN [5] was 188 mg/dL and the creatinine [5] was 1 mg/dL. For the same sequence, the Lymphocytes [6] was 18%, the Monocytes [6] was 58% and the Neutrophils [6] was 92%. It also gave an RBC [6] of 12 pL⁻¹, an MCH [6] of 2 pg and a Hemoglobin [6] of 14 g/dL. The MCHC [6] was 0%, the Platelets [7] was 66 10^3/μL and the WBC [7] was 68 nL⁻¹. For the same sequence, the HCT [7] was 13% and the MCV [7] was 1 fL.
